Laboratory results as given in ChEMBL document CHEMBL1145588, “Design, synthesis, and structure-activity relationships of piperidine and dehydropiperidine carboxylic acids as novel, potent dual PPARalpha/gamma agonists” (Bioorg Med Chem Lett, 2008).

Legend:
[1] = target: T1, Peroxisome proliferator-activated receptor gamma (Homo sapiens, UniProt P37231); test: Agonist activity at human PPARgamma expressed in HEK293 cells assessed as luciferase activity by GAL4 transactivation assay; assay type: functional, cell-based
T1 sequence (P37231 whole entry): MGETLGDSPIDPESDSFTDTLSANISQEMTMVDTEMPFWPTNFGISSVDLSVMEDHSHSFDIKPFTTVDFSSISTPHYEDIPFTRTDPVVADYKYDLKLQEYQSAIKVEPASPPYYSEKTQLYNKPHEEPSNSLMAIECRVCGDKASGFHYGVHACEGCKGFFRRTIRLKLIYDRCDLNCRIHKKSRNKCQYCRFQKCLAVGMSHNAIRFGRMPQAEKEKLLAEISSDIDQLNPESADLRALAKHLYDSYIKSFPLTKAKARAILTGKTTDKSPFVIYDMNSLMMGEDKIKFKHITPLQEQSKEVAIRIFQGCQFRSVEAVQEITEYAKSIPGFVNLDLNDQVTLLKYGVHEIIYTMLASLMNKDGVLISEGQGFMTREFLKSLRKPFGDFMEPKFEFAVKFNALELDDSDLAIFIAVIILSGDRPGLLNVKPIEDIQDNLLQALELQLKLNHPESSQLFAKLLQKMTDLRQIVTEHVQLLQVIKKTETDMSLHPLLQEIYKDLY

[2] = target: Peroxisome proliferator-activated receptor gamma (Homo sapiens) (UniProt P37231); test: Binding affinity at human PPARgamma by fluorescence polarization
[3] = target: T2, Peroxisome proliferator-activated receptor alpha (Homo sapiens, UniProt Q07869); test: Agonist activity at human PPARalpha expressed in HEK293 cells assessed as luciferase activity by GAL4 transactivation assay; assay type: functional, cell-based
T2 sequence (Q07869 whole entry): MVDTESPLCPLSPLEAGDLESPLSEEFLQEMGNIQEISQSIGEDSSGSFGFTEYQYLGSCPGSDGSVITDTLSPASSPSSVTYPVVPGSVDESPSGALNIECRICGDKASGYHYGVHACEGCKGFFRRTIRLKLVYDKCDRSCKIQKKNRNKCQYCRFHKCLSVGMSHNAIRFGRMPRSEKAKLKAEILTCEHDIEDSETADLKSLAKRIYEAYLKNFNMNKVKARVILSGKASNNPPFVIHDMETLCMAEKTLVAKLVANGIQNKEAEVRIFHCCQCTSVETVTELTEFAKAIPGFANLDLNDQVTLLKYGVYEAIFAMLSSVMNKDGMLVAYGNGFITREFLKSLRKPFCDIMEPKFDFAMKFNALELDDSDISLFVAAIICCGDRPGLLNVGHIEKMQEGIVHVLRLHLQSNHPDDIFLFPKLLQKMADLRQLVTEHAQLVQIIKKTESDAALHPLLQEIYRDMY

[4] = target: Peroxisome proliferator-activated receptor alpha (Homo sapiens) (UniProt Q07869); test: Binding affinity at human PPARalpha by fluorescence polarization

| Compound | EC50 [1] [nM] | IC50 [2] [nM] | EC50 [3] [nM] | IC50 [4] [nM] |
| --- | --- | --- | --- | --- |
| Cc1oc(-c2ccccc2)nc1CCOc1cccc(C2CN(C(=O)OCC(C)C)CCC2C(=O)O)c1 (racemic) | > 7500 | > 27300 | 209 | 7620 |
| Cc1oc(-c2ccccc2)nc1CCOc1cccc(C2=C(CC(=O)O)CCN(C(=O)Oc3ccccc3)C2)c1 | 46 | 34 | 4 | 16 |
| Cc1oc(-c2ccccc2)nc1CCOc1cccc(CC2=CN(C(=O)OCc3ccccc3)CCC2C(=O)O)c1 (racemic) | 24 | 133 | 16 | 654 |
| Cc1oc(-c2ccccc2)nc1CCOc1cccc(CC2=C(C(=O)O)CCN(C(=O)OCc3ccccc3)C2)c1 | > 3500 | 4730 | 4920 | > 15000 |
| CCCOC(=O)N1CCC(C(=O)O)=C(Cc2cccc(OCCc3nc(-c4ccccc4)oc3C)c2)C1 | 180 |  |  |  |
| COc1ccc(OC(=O)N(CC(=O)O)Cc2ccc(OCCc3nc(-c4ccccc4)oc3C)cc2)cc1 [MURAGLITAZAR] |  |  | 1410 |  |
| Cc1oc(-c2ccccc2)nc1CCOc1ccc(CCC2CN(C(=O)OCC(C)C)CCC2C(=O)O)cc1 (racemic) | 263 | 450 | 44 | 711 |
| Cc1oc(-c2ccccc2)nc1CCOc1cccc(C2=C(CC(=O)O)CCN(C(=O)OCC(C)C)C2)c1 | 18 | 49 | 6 | 130 |
| Cc1oc(-c2ccccc2)nc1CCOc1ccc(CCC2=C(C(=O)O)CCN(C(=O)OCC(C)C)C2)cc1 | 74 | 110 | 56 | 255 |
| Cc1oc(-c2ccccc2)nc1CCOc1cccc(C2CN(C(=O)Oc3ccccc3)CCC2CC(=O)O)c1 (racemic) | 1290 | 7690 | 170 | 8120 |

The next lines start with the values.

| EC50 [1] [nM] | IC50 [2] [nM] | EC50 [3] [nM] | IC50 [4] [nM] | Compound |
| --- | --- | --- | --- | --- |
| 644 | 1380 | 89 | 1330 | Cc1oc(-c2ccccc2)nc1CCOc1cccc(CC2=C(C(=O)O)CCN(c3nccc(C(F)(F)F)n3)C2)c1 |
| > 7500 | > 27500 | > 7500 | > 27500 | Cc1oc(-c2ccccc2)nc1CCOc1cccc(C2=C(C(=O)O)CCN(Cc3ccccc3)C2)c1 |
| 1070 | 6030 | 18 | 1370 | Cc1oc(-c2ccccc2)nc1CCOc1cccc(CC2CN(C(=O)OCC(C)C)CCC2C(=O)O)c1 (racemic) |
| 490 | 3090 | 580 | > 15000 | Cc1oc(-c2ccccc2)nc1CCOc1cccc(C2CN(C(=O)OCC(C)C)CCC2CC(=O)O)c1 (racemic) |
| 4650 | 7400 | 5570 | > 27300 | Cc1oc(-c2ccccc2)nc1CCOc1ccc(C2=C(C(=O)O)CCN(C(=O)OCC(C)C)C2)cc1 |
| 257 | 1250 | 5 | 215 | Cc1oc(-c2ccccc2)nc1CCOc1ccc(CC2CN(C(=O)OCC(C)C)CCC2C(=O)O)cc1 (racemic) |
| 7 |  | 165 |  | Cc1oc(-c2ccccc2)nc1CCOc1ccc(C[C@@H]2CN(c3nccc(C(F)(F)F)n3)C[C@@H]2C(=O)O)cc1 |
| 14 | 287 | 23 | 1080 | Cc1oc(-c2ccccc2)nc1CCOc1cccc(CC2=CN(c3nccc(C(F)(F)F)n3)CCC2C(=O)O)c1 (racemic) |
| 1120 | 3040 | 28 | 1170 | Cc1oc(-c2ccccc2)nc1CCOc1ccc(CC2=C(C(=O)O)CCN(C(=O)OCC(C)C)C2)cc1 |
